Tests used:
[1] = palatability / growth performance test in broilers; type: in vivo; settings: broiler chickens, 17-21 days, butyrate source incorporated in standard feed (STD), five days
Description: This evaluation was carried out by in vivo tests conducted in broilers and in piglets at the post-weaning stage. The chickens were placed in normal breeding conditions. They were divided into several groups, and each group received for five days a feed containing a source of butyrate, incorporated directly into a standard feed (STD). […] The growth performances and feed consumption were measured at the beginning and end of the study.

[2] = in vitro lower digestive tract model (caecal fermentation): release of butyric acid; type: in vitro ADME, broiler chickens (Ross PM33); settings: 50 mM butyric acid equivalent; upper tract model plus caecal fermentation 24 hours at 40° C.
Description: Twelve twenty-one-day-old broiler chickens (Ross PM33), housed in cages, fed and watered ad libitum, were euthanized and their caecal contents were collected and pooled. All experiments were conducted in accordance with the European Union animal protection guidelines and the legislation governing the ethical treatment of animals, and the researchers were certified by the French government to conduct animal experiments. The facilities of the Centre of Expertise and Research in Nutrition comply with Convention No. C 03 159 4 of 6 Nov. 2008, relating to experiments on living vertebrate animals (European Regulation 24/11/86 86/609 EEC; Ministerial Order of 19 Apr. 1988).
The cecal contents were mixed (5% w/v) with an anaerobic buffer prepared according to Theodorou et al. [Theodorou, Michael K., et al. “A simple gas production method using a pressure transducer to determine the fermentation kinetics of ruminant feeds.” Animal feed science and technology 48.3-4 (1994): 185-197], then the microbial suspension transferred into Hungate tubes containing 50 mM of butyric acid equivalent for each candidate (butyryl lactylate of the disclosure or tributyrin of the prior art) and incubated for 24 hours with constant stirring at 40° C.
At the end of the fermentation, the butyric acid and residual butyric ester were quantified.

[3] = palatability / growth performance test in post-weaning piglets; type: in vivo; parameters: concentration or dose not given beside the values; settings: butyrate source in standard feed (STD); for BWG (body weight gain), effect compared to a standard control: 36-49 days old; for FCR (feed conversion ratio), effect compared to a standard control / FI (feed intake), effect compared to a standard control: 36-49 days
Description: This evaluation was carried out by in vivo tests conducted in broilers and in piglets at the post-weaning stage.
The animals were placed in normal breeding conditions.
They were divided into four distinct groups, and each group received for about ten days (from 36 to 49 days of age) a standard feed (STD) containing a source of butyrate. Several sources of butyrate were compared: the butyryl lactylate of the disclosure and two protected forms of butyrate, commercially available, a coated butyrate (fat-coated) and tributyrin.
The growth performances and feed consumption were measured at the beginning and end of the study.

[4] = hydrolysis in drinking water; type: physicochemical; settings: drinking water of livestock
solubility in water = type: physicochemical
[5] = in vitro upper digestive tract model (simulated chicken crop, proventriculus/gizzard, intestine): release of butyric acid; type: in vitro ADME; settings: 50 mM butyric acid equivalent; for release of butyric acid in the stomach: proventriculus/gizzard 45 min at pH 3, 40° C. with pepsin
Description: The experimental tests were conducted in in vitro models described below.
The method developed by Menezez and Blackburn was used to simulate the chicken digestive tract [Menezes-Blackburn D, Gabler S, Greiner R. «Performance of Seven Commercial Phytases in an in Vitro Simulation of Poultry Digestive Tract.»J Agric Food Chem. 2015 Jul. 15; 63 (27): 6142-9]. It consists of simulating the 3 compartments of the upper part of the digestive tract: the crop (30 min at pH 5, 40° C. with stirring), the proventriculus/gizzard (45 min at pH 3, 40° C. with stirring with the addition of pepsin), the intestine (60 min at pH 6.5, 40° C. with stirring with the addition of pancreatin and bile extract). The rate of protection and release of butyrate for each molecule (50 mM butyric acid equivalent of the butyryl lactylate of the disclosure or tributyrin of the prior art) was evaluated in each compartment sequentially (quantification of the release of butyric acid and residual butyric ester).

[6] = listed as STD + butyryl lactylate
[7] = listed as STD + Butyryl lactylate
[8] = listed as STD + tributyrine butyrate

| Compound | BWG (body weight gain), effect compared to a standard diet [1] | FCR (feed conversion ratio), effect compared to a standard diet [1] | FI (feed intake), effect compared to a standard diet [1] | BWG (body weight gain), effect compared to a standard control [3] | FCR (feed conversion ratio), effect compared to a standard control [3] | FI (feed intake), effect compared to a standard control [3] | release of butyric acid in the stomach [5] | also measured |
| --- | --- | --- | --- | --- | --- | --- | --- | --- |
| CCCC(=O)OC(C)C(=O)O (stereo not shown) [butyryl lactylate] | +10% | −6.7% | +2.8% | +21% | −4% | +16% | does not release butyric acid in the stomach | BWG (body weight gain), effect compared to a standard diet [1, 6]: +10%; FI (feed intake), effect compared to a standard diet [1, 6]: +2.8%; intestinal release profile of butyric acid, upper and lower intestine [2]: balanced release in the upper and lower intestine; BWG (body weight gain), effect compared to a standard control [3, 7]: +21%; FCR (feed conversion ratio), effect compared to a standard control [3, 7]: −4.8%; FI (feed intake), effect compared to a standard control [3, 7]: +16%; hydrolysis into lactic acid and free butyric acid in drinking water [4]: without risk of hydrolysis; solubility in water (solubility in water): soluble in water |
| CCCC(=O)OCC(COC(=O)CCC)OC(=O)CCC [tributyrin, reference compound] | −9% | +6.6% | −3% | −17% | +3.3% | −14% | significant gastric loss | BWG (body weight gain), effect compared to a standard diet [1, 8]: −9%; FI (feed intake), effect compared to a standard diet [1, 8]: −3%; BWG (body weight gain), effect compared to a standard control [3, 8]: −17%; FCR (feed conversion ratio), effect compared to a standard control [3, 8]: +3.3%; FI (feed intake), effect compared to a standard control [3, 8]: −14%; release of butyric acid in the intestine (upper part) ([5]; intestine 60 min at pH 6.5, 40° C. with pancreatin and bile extract): complete release at the beginning of the small intestine |
